Laboratory results reported in patent US8802675B2, “Neuroprotective multifunctional compounds and pharmaceutical compositions comprising them” (priority 2009, dated 2014).
Like-named read-outs stand apart in the source and are kept apart here.

What was measured:
[1] = target: T1, total cholinesterase (ChE) (Rattus norvegicus, UniProt P37136); experiment: Total cholinesterase inhibition in rat brain homogenates (Ellman); assay type: biochemical
T1 sequence (P37136 32-614): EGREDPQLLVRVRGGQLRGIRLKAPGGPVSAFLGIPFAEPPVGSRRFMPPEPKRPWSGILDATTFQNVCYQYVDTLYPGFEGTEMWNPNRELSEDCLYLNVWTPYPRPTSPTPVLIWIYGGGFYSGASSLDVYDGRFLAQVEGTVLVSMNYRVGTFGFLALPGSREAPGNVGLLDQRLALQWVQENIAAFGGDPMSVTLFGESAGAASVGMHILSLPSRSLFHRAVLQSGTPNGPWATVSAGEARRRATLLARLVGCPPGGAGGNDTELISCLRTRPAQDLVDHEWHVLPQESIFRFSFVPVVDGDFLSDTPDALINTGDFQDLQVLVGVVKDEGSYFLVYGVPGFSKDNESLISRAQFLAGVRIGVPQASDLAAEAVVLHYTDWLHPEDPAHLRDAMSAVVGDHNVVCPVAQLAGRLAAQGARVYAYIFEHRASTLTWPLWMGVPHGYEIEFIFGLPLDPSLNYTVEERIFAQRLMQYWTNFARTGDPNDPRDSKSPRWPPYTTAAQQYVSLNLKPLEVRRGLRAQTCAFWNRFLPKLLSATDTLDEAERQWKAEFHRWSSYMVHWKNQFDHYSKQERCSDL
Protocol: Cholinesterase activity was determined in rat brain homogenate following incubation with varying concentrations of the multifunctional pro-chelators of the invention (also referred to herein as “carbamates”).
Ellman's colorimetric method was adapted for determination of total cholinesterase (ChE) and butyrylcholinesterase (BuChE) activities in rat brain homogenates. Brain tissue from adult Wistar rats was homogenized at 2% w/v (or 10% w/v, for BuChE) in 0.1 M sodium phosphate buffer, pH 7.4, with added NaCl 58.5 g/l and Triton X-100 0.05% v/v. Aliquots of homogenate (20 μl) were incubated with the test compounds for designed time intervals in phosphate buffer pH 7.4, before addition of 5,5′-dithiobis(2-nitrobenzoic) acid and either 1 mM acetylthiocholine iodide or 10 mM butyrylthiocholine iodide (Sigma, St. Louis, Mo.). The reaction was run at 37° C. in a final volume of […] in 96-well microplates and was followed at 412 nm for 5 min with a plate reader. In every experiment, cholinesterase-independent (nonspecific) substrate hydrolysis was determined by including one experimental group treated with tacrine 30 μM. Appropriate tissue and reagent blanks were also included. Reaction velocities were determined in three or four replicates per condition; these were averaged and expressed as percent activity relative to control (solvent), after subtracting the rate of nonspecific hydrolysis.
The results are the mean SEM, n=3 in triplicates. ND—not determined.

AChE = AChE (Homo sapiens, UniProt P22303); experiment: Conversion of pro-chelator by AChE into active chelator (UV-vis and MS of extract); assay type: biochemical; details: extract from a solution of AChE titrated with metal salts
Protocol: When ZnCl2, or CuSO4 were titrated into the extract, two new bands at around 365 nm or 375 nm appeared, corresponding to the formation of […], respectively. […] This finding was reinforced by mass spectrometry analysis of the extract, which gave a value of m/z 227.22, corresponding to m/z of [M30+H]^+.
When FeCl3 or FeSO4 were titrated to an extract from a solution of AChE into which compound 23 was added, new bands at around 460 nm and 590 nm appeared exactly matching the absorption of HLA20−Fe in FIG. 2A. Titration of CuSO4 or ZnCl2 to the extract introduced new bands at around 370 nm or 360 nm, corresponding to the absorption of the complexes […], respectively.

[2] = system: human SH-SY5Y neuroblastoma cells; experiment: MTT cell viability assay in SH-SY5Y cells; assay type: cell-based; details: MTT after 48 h incubation
Protocol: Cell culture. Human neuroblastoma SH-SY5Y cells were obtained from American Type Culture Collection (Rockville, Md., USA). Cells were routinely cultured in MEM-Eagle/F-12(HAM) (1:1), containing 10% FCS and a mixture of 2% sodium bicarbonate, 1% penicillin/streptomycin/nystatin and 1% sodium pyruvate. Cell cultures were incubated at 37° C. in a humid 5% CO2-95% air environment.
Twenty-four hours after attachment of the SH-SY5Y cells, the medium was replaced with DMEM containing 0.1% BSA. The test compounds were added to the cells after 1 h of incubation. After 24 h incubation, the cells were subjected to MTT test as previously described (Gassen et al., 1998). The absorption was determined in a Perkin-Elmer Dual Wavelength Eliza-Reader at λ=570/650 nm after automatic subtraction of background readings. The results are expressed as percentage of the untreated control.
The effect of the iron chelators M30 and HLA20 versus that of the pro-chelators 13 and 23, on viability of human SH-SY5Y cells was tested. Human SH-SY5Y neuroblastoma cells were plated in 100-mm culture dishes and cultured in DMEM (4,500 mg/l glucose), containing 10% FCS (fetal calf serum, Bet Haemek, Israel), and 1% of a mixture of penicillin/streptomycin/nystatin. When cells reached the required confluence, they were detached and re-cultured in microtiter plates (96 wells) pre-coated with collagen ([…]), in DMEM with 10% of fetal calf serum (0.5×10^4 cells/well). Cell viability was tested by the 3-(4,5-dimethylthiazol-2-yl)-2,5-diphenyltetrazolium (MTT) assays after 48 h incubation.

AChE, sequence (P22303 32-614): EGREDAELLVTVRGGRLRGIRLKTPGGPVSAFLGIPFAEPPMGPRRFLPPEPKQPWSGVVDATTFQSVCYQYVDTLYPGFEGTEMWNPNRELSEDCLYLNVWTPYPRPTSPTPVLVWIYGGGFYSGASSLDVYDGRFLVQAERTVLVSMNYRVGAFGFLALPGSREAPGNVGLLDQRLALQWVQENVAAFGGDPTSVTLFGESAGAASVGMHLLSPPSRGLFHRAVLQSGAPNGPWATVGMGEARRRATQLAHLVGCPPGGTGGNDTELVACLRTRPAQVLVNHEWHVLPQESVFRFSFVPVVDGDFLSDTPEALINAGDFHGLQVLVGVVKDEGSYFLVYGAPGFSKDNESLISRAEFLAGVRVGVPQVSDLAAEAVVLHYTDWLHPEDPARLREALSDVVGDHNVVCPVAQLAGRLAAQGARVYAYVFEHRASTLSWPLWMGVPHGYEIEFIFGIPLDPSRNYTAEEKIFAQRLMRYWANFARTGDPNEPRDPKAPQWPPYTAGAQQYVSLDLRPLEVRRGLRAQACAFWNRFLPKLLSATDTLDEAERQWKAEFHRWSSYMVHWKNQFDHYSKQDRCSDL

With `C#CCN(C)Cc1ccc(OC(=O)N(C)CC)c2ncccc12` [Compound 3, 5-((methyl(propargyl)amino)methyl)quinolin-8-yl ethyl(methyl)carbamate] the IC50 ([1]; rat brain homogenates, mean SEM, n=3 in triplicates) was 9.8 µM.
With `C#CCN(C)Cc1ccc(OC(=O)N2CCN(Cc3ccccc3)CC2)c2ncccc12` [Compound 13, 5-((methyl(propargyl)amino)methyl)quinolin-8-yl 4-benzyl piperazine-1-carboxylate] the “conversion by AChE to active chelator” value (AChE) was “converted by AChE back into M30”, the cell viability ([2]; 10 μM) was “similar” and the cell viability ([2]; 25 μM) was “significantly higher”.
With `C#CCC1CCN(Cc2ccc(OC(=O)N(C)C)c3ncccc23)CC1` [Compound 23, 5-((4-(propargyl)piperidin-1-yl)methyl)quinolin-8-yl dimethylcarbamate] the “conversion by AChE to active chelator” value (AChE) was “converted compound 23 back into HLA20”, the cell viability ([2]; 10 μM) was “over 75%” and the cell viability ([2]; 25 μM) was “over 75%”. The cell viability ([2]; 50 μM) was 40%.
In the case of `C#CCN(C)Cc1ccc(O)c2ncccc12` [M30, reference compound], the IC50 [1] is reported as 114 µM and the cell viability ([2]; 10 μM) is reported as “similar”.
